# Experimental data from patent US20070054886A1, “Ras antagonists for treating neurodegenerative disorders” (RAMOT AT TEL AVIV UNIVERSITY, LTD., priority 2003, published 2007).
# Values joined by “and” are separate entries in the source; they are usually repeats but may differ in a detail not shown here. Equal entries are not always repeated.
# Key:
# [1] = test system: NMDA receptors (NMDAR); assay: NMDAR quantitative autoradiography ([3H]MK-801 binding) in brain sections of CHI mice; format: in vivo, mouse; conditions: seven days after CHI, FTS 5 mg/kg 1 hr after CHI
# Description: Seven days after CHI, vehicle-treated (n=5) and FTS-treated (n=4) mice were decapitated and their brains were removed (within 1 minute), frozen in powdered dry ice, and kept at −70° C. until used. Consecutive 20-μ cryostat sections of the whole forebrain were cut in the coronal plane, and one in every ten sections (i.e. at intervals of 200μ) was thaw-mounted onto coated microscope glass slides.
# NMDAR autoradiography was performed as described (Bowery et al., 1988), with some modifications. […] At the end of incubation, the sections were dipped for 5 seconds in ice-cold buffer, washed for 90 minutes in cold fresh buffer, and then dipped in ice-cold distilled water. The dried tissue sections were exposed to tritium-sensitive film accompanied by commercial calibrated tritium standard scales (Amersham). After exposure for 36 days, the films were developed in Kodak D-19, fixed, and dried. The sections were then stained with cresyl violet for anatomical region placement according to a mouse brain atlas (Paxinos and Franklin, 1997) and for identification of lesions.
# The films were scanned and digitized using PhotoShop and a large bed Umax scanner, and saved in tiff format for accessibility to NIH image software. Using NIH Image routines, the standard curve was measured and used to calibrate regional brain measurements. Morphometry routines were used to measure the lesion area on each section where it was visible. The volume was calculated by multiplying the summed lesion areas by the distance between sections (0.2 mm).
# [2] = cited from earlier work
# [3] = test system: Ras-GTP
# From the text: The study was approved by the Institutional Animal Care Committee of Hadassah Medical Center and the Hebrew University. Sixty male C57bl mice weighing 25 to 35 g were used. CHI was induced under ether anesthesia, as previously described (Chen et al., 1996) and modified (Yatsiv et al., 2002). Briefly, after induction of ether anesthesia the skull was exposed by a midline longitudinal incision. A tipped Teflon cone was placed in the mid-coronal plane above the left anterior frontal area, 1 mm lateral to the midline. A weight (74 g) was dropped onto the cone (from a height of 15 cm), resulting in a focal injury. After trauma, animals received supporting oxygenation with 100% O2 for no longer than 2 min and were then returned to their cages. Sham-injured mice were anesthetized and their skin was incised, but they were not subjected to CHI.
# In the first experiment mice were sacrificed 10, 30, or 120 min after sham-injury or CHI to assess levels of Ras=GTP and phospho=ERK. In the second set of experiments, the animals received FTS (5 mg/kg i.p.) or vehicle, 1 hr after CHI and sham-injured mice received the vehicle (n=4 per group). The mice were sacrificed 2 or 24 hrs after CHI, their brains were removed, and cortical tissue samples adjacent or contra-lateral to the site of injury were homogenized in homogenization buffer containing protease inhibitors and 0.5% Triton X100 as described (Haklai et al., 1998). Debris was removed by centrifugation and protein in the extract was determined with the aid of the Bio-Rad protein assay (Bio-Rad Laboratories, GmbH). Total Ras protein was determined by Western immunoblotting of 30 μg of protein with 1:2500 pan-Ras Ab (Oncogene Research Products, followed by 1:7500 peroxidase goat anti-mouse IgG (Haklai et al., 1998). For determination of GTP-bound Ras in protein samples (1 mg), Ras-GTP was pulled down by glutathione-S-transferase fused to the Ras-binding domain of Raf (GST-RBD) which binds Ras-GTP only. The GST-RBD-Ras-GTP was pulled down with glutathione-agarose beads, and Ras was then determined by immunoblotting with pan-Ras Ab as described above, followed by enhanced chemiluminescence (ECL; Amersham Pharmacia Biotech, Piscataway, N.J., U.S.A) (Paz et al., 2000). The bands were quantified by densitometry with Image Master VDS-CL (Amersham Biotech) using TINA 2.0 software (Ray Tests).
# [4] = test system: phospho-ERK; assay: ERK and phospho-ERK immunoblot in brains of CHI mice; format: in vivo, mouse; conditions: 2 hrs after CHI
# Description: ERK and phospho-ERK were determined in 30 μg of brain extract proteins by immunoblotting, ECL, and densitometry (Paz et al., 2000). ERK immunoblots were incubated with 1:2000 rabbit anti-ERK1/2 Ab (Santa-Cruz) and then with 1:1000 peroxidase-goat anti rabbit IgG. Phospho-ERK immunoblots were incubated with 1:10,000 mouse anti-phospho-ERK Ab (Sigma) and then with 1:10,000 peroxidase-goat anti-mouse IgG.
# [5] = left (ipsilateral) hemisphere, mean ± SD, 4 mice
# [6] = right (contra-lateral) hemisphere, mean ± SD, 4 mice
# [7] = 2 hrs after CHI, drug i.p. 1 hr after CHI, FTS 5 mg/kg, MK-801 0.5 mg/kg or 1 mg/kg, mean±SD
compound,measurement,setting,value
"CC(C)=CCC/C(C)=C/CC/C(C)=C/CSc1ccccc1C(=O)O [FTS, farnesyl-thiosalicylic acid]",effect of trauma on the binding of [3H]-MK-801 to the NMDA receptors,"[1]; ANOVA, no significant difference between sides (P=0.5)",completely reversed
same,"NMDA-receptor density, dorsal striatum, left",[1]; [5],4.32 ± 0.32 nCi of [^3H]-MK-801 specifically bound/mg
same,"NMDA-receptor density, frontal motor cortex, left",[1]; [5],6.32 ± 2.12 nCi of [^3H]-MK-801 specifically bound/mg
same,"NMDA-receptor density, hippocampus CA1, left",[1]; [5],9.85 ± 1.34 nCi of [^3H]-MK-801 specifically bound/mg
same,"NMDA-receptor density, hippocampus CA3, left",[1]; [5],7.69 ± 0.96 nCi of [^3H]-MK-801 specifically bound/mg
same,"NMDA-receptor density, parietal cortex, left",[1]; [5],5.69 ± 1.18 nCi of [^3H]-MK-801 specifically bound/mg
same,"NMDA-receptor density, perirhinal cortex, left",[1]; [5],5.92 ± 0.72 nCi of [^3H]-MK-801 specifically bound/mg
same,"NMDA-receptor density, piriform cortex, left",[1]; [5],5.65 ± 1.54 nCi of [^3H]-MK-801 specifically bound/mg
same,"NMDA-receptor density, ventral striatum, left",[1]; [5],4.06 ± 1.82 nCi of [^3H]-MK-801 specifically bound/mg
same,"NMDA-receptor density, dorsal striatum, right",[1]; [6],5.45 ± 1.72 nCi of [^3H]-MK-801 specifically bound/mg
same,"NMDA-receptor density, frontal motor cortex, right",[1]; [6],6.63 ± 1.7 nCi of [^3H]-MK-801 specifically bound/mg
same,"NMDA-receptor density, hippocampus CA1, right",[1]; [6],9.25 ± 0.32 nCi of [^3H]-MK-801 specifically bound/mg
same,"NMDA-receptor density, hippocampus CA3, right",[1]; [6],7.23 ± 0.42 nCi of [^3H]-MK-801 specifically bound/mg
same,"NMDA-receptor density, parietal cortex, right",[1]; [6],7.04 ± 1.46 nCi of [^3H]-MK-801 specifically bound/mg
same,"NMDA-receptor density, perirhinal cortex, right",[1]; [6],5.97 ± 0.88 nCi of [^3H]-MK-801 specifically bound/mg
same,"NMDA-receptor density, piriform cortex, right",[1]; [6],5.57 ± 0.84 nCi of [^3H]-MK-801 specifically bound/mg
same,"NMDA-receptor density, ventral striatum, right",[1]; [6],5.21 ± 0.54 nCi of [^3H]-MK-801 specifically bound/mg
same,side effects at the 5 mg/kg dose in animal models of neoplasticity,"[2]; 5 mg/kg FTS, previous studies (Jansen et al., 1999; Kloog et al., 1999)",without inadvertent side effects
same,toxicity and adverse side effects in animals,"[2]; Kloog et al., 1999",not to be toxic and have no adverse side effects
same,"inhibition of the CHI-induced increase in Ras-GTP, left (contused) hemisphere",[3]; [7],81.7±10.0% and 75.2±6.8% and 82% and 82±10%
same,"inhibition of the CHI-induced increase in Ras-GTP, right (contra-lateral) hemisphere",[3]; [7],70.4±12.0% and 67.2±7.1% and 70±12%
same,"inhibition of Ras-GTP, range over both hemispheres","[3]; CHI mice, 2 hrs after CHI",70-82%
same,effect on the total amount of Ras in the brain,[3]; FTS 5 mg/kg i.p. 1 hr after CHI,no effect
same,effect on Ras-GTP levels 24 hrs after CHI,"[3]; FTS 5 mg/kg i.p. 1 hr after CHI, assessed 24 hrs after CHI",almost no effect
same,effect on amounts of total ERK,[4],Neither inhibitor altered
same,"inhibition (reduction) of phospho-ERK, right (contra-lateral) hemisphere","[4]; drug i.p. 1 hr after CHI, FTS 5 mg/kg, MK-801 0.5 mg/kg or 1 mg/kg",73.2±8.3% and 73±8%
